IC50 data for 32 molecules are collected here from patent publication US11530210B2, “Substituted heteroaromatic pyrazolo-pyridines and their use as GLUN2B receptor modulators” (JANSSEN PHARMACEUTICA NV, priority 2019, dated 2022).

Counter-ions that a name gives are not always drawn. Some results are limits rather than exact numbers.

In the assay the target is T1, human GluN1/GluN2B NMDA receptors (Homo sapiens, UniProt Q13224).
T1 construct: expressed in transfected cells
The assay is described as follows: Calcium flux (FLIPR) assay on cloned human NR1/GluN2B ion channels expressed in mammalian cells (standard and HTS variants). In kind it is cell-based. Conditions: cells expressing human GluN1/GluN2B, glutamate and glycine co-agonists. The procedure: Effects of Test Articles on Cloned Human NR1/GuN2B Ion Channels Expressed in Mammalian Cells
NMDA receptors are ion channels that are highly permeable to Ca^2+ ions, rendering it possible to monitor NMDA receptor function using cell-based calcium flux assay. In this assay, co-agonists glutamate and glycine are added to cells heterologously expressing human GluN1/GluN2B NMDA receptors to initiate cellular Ca^2+ influx. The time course of the changes in intracellular calcium is measured using a fluorescent dye and a FLIPR (Fluorometric Imaging Plate Reader) device.
Twenty-four hours before measurements, the expression of the NMDA receptors in the stable cell line is induced with Tet-On inducible system in the presence of a non-selective NMDA receptor blocker. On the day of the experiment, cell culture media is carefully washed, and the cells are loaded with Calcium 5 Dye Kit (Molecular Devices) in dye loading buffer containing 137 mM NaCl, 4 mM KCl, 2 mM CaCl2, 0.5 mM MgCl2 (standard assay) or 1.5 mM MgCl2 (HTS assay), 10 mM HEPES and 5 mM D-glucose; pH 7.4. After 1 h incubation at the room temperature, the dye is washed away with the assay buffer (137 mM NaCl (standard assay) or 150 mM (HTS assay), 4 mM KCl (standard assay) or 3 mM (HTS assay), 2 mM CaCl2), 0.01 mM EDTA, 10 mM HEPES and 5 mM D-glucose; pH 7.4) In the FLIPR TETRA reader, various concentrations of the test compounds are added to the cells for 5 min while fluorescence is monitored to detect potential agonist activity. Next, co-agonists, glutamate and glycine are added for another 5 minutes. The concentration of glutamate corresponding to ˜EC40 (standard assay) or EC40 (HTS assay) is used to maximize the assay's signal window and ability to detect NMDA receptor antagonists and negative allosteric modulators. A saturating concentration (10 μM) of glycine is also present in the assay. A non-selective NMDA receptor antagonist, (+)MK-801 is used as a positive control for antagonist activity. The fluorescent signal in the presence of test compounds is quantified and normalized to the signal defined by the appropriate control wells.

T1 sequence (Q13224 27-1484, other chains not shown): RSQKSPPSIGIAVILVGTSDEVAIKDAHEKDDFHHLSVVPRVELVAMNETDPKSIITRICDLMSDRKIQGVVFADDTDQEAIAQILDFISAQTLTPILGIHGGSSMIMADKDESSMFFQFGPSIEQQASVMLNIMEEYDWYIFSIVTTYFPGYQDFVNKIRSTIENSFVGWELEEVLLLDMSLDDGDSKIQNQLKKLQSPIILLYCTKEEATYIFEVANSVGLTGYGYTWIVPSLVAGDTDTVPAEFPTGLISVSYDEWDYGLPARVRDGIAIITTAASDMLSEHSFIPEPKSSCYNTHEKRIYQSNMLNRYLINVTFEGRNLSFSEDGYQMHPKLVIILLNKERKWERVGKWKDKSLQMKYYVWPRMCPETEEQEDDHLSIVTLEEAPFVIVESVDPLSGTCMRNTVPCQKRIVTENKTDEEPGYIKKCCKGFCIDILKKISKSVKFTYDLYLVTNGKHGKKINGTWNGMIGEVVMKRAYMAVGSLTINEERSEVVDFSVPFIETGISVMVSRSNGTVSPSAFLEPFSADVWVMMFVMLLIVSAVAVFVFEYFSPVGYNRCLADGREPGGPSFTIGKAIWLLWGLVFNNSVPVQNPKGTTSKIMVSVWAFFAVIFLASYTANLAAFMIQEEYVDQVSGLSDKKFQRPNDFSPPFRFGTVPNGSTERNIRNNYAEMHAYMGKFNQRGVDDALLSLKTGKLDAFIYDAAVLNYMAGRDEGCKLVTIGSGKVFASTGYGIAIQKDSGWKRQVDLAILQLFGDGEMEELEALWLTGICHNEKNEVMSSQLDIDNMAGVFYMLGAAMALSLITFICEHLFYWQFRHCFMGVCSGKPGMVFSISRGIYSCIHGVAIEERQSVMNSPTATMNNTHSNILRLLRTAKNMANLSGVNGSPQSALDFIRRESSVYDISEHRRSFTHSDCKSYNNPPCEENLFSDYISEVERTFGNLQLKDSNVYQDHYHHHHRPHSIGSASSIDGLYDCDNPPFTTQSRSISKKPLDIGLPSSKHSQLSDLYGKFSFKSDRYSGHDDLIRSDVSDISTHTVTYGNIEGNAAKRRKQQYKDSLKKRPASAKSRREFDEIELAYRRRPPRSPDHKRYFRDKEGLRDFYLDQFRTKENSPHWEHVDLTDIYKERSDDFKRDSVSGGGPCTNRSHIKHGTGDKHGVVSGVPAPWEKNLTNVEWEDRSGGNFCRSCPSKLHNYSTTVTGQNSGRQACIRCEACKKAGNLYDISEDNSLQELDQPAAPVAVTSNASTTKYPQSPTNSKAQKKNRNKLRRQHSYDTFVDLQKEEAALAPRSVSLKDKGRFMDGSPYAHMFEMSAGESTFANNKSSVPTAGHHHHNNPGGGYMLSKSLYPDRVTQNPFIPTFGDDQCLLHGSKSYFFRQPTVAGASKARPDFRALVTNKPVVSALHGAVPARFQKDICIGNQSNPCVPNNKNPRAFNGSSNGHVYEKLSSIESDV

With `FC(F)(F)c1cccc(-c2cnc3cnn(Cc4cncnc4)c3c2)c1` [Example 276, 1-(Pyrimidin-5-ylmethyl)-6-[3-(trifluoromethyl)phenyl]pyrazolo[4,3-b]pyridine], the IC50 came out at 145 nM. On to `COc1cncc(Cn2ncc3ncc(-c4cccc(C(F)(F)F)c4)cc32)c1` [Example 173, 1-[(5-Methoxy-3-pyridyl)methyl]-6-[3-(trifluoromethyl)phenyl]pyrazolo[4,3-b]pyridine], for which the IC50 amounted to 210 nM.

As to `Cc1cc(-c2cnc3c(F)nn(Cc4cccnc4)c3c2)ccc1F` [Example 178, 3-Fluoro-6-(4-fluoro-3-methyl-phenyl)-1-(3-pyridylmethyl)pyrazolo[4,3-b]pyridine], the IC50 worked out at 26 nM. For `Fc1cncc(Cn2ncc3ncc(-c4ccc(Cl)cc4)cc32)c1` [Example 148, 6-(4-Chlorophenyl)-1-[(5-fluoro-3-pyridyl)methyl]pyrazolo[4,3-b]pyridine trifluoroacetate salt], the IC50 was 634 nM. On to `Cc1cc(Cn2ncc3ncc(-c4cccc(C(F)(F)F)c4)cc32)ns1` [Example 64, 5-Methyl-3-[[6-[3-(trifluoromethyl)phenyl]pyrazolo[4,3-b]pyridin-1-yl]methyl]isothiazole], for which the IC50 was found to be 2240 nM. As to `Cc1nc(Cn2ncc3ncc(-c4ccc(F)c(C(F)F)c4)cc32)cs1` [Example 67, 4-[[6-[3-(Difluoromethyl)-4-fluoro-phenyl]pyrazolo[4,3-b]pyridin-1-yl]methyl]-2-methyl-thiazole], the IC50 was 466 nM.

`CC(F)(F)c1cc(-c2cnc3cnn(Cc4cncc(Cl)c4)c3c2)ccc1Cl` [Example 237, 6-[4-Chloro-3-(1,1-difluoroethyl)phenyl]-1-[(5-chloro-3-pyridyl)methyl]pyrazolo[4,3-b]pyridine]: the IC50 is 200 nM. On to `CC(=O)Nc1nnc(Cn2ncc3ncc(-c4ccc(F)c(OC(F)F)c4)cc32)s1` [Example 19, N-(5-((6-(3-(Difluoromethoxy)-4-fluorophenyl)-1H-pyrazolo[4,3-b]pyridin-1-yl)methyl)-1,3,4-thiadiazol-2-yl)acetamide], for which the IC50 is greater than 2990 nM. Consider `Fc1cncc(Cn2ncc3ncc(-c4ccc(F)c(C(F)(F)F)c4)cc32)c1` [Example 233, 1-[(5-Fluoro-3-pyridyl)methyl]-6-[4-fluoro-3-(trifluoromethyl)phenyl]pyrazolo[4,3-b]pyridine], for which the IC50 turned out to be 75 nM. In the case of `Cc1cc(-c2cnc3cnn(Cc4cccnn4)c3c2)ccc1Cl` [Example 267, 6-(4-Chloro-3-methyl-phenyl)-1-(pyridazin-3-ylmethyl)pyrazolo[4,3-b]pyridine], the IC50 was determined as 404 nM. On to `Clc1ccsc1-c1cnc2cnn(Cc3cccnc3)c2c1` [Example 141, 6-(3-Chloro-2-thienyl)-1-(3-pyridylmethyl)pyrazolo[4,3-b]pyridine], for which the IC50 was 61 nM. To `N#Cc1cncc(Cn2ncc3ncc(-c4ccc(Cl)c(OC(F)F)c4)cc32)c1` [Example 241, 5-[[6-[4-Chloro-3-(difluoromethoxy)phenyl]pyrazolo[4,3-b]pyridin-1-yl]methyl]pyridine-3-carbonitrile] belongs 151 nM. On to `COc1cncc(Cn2ncc3ncc(-c4ccc(F)cc4)cc32)c1` [Example 150, 6-(4-Fluorophenyl)-1-[(5-methoxy-3-pyridyl)methyl]pyrazolo[4,3-b]pyridine], for which the IC50 was determined as 410 nM. On to `Cc1noc(Cn2ncc3ncc(-c4ccc(F)c(C(F)F)c4)cc32)n1` [Example 95, 5-[[6-[3-(Difluoromethyl)-4-fluoro-phenyl]pyrazolo[4,3-b]pyridin-1-yl]methyl]-3-methyl-1,2,4-oxadiazole], for which the IC50 is 40 nM. To `Cc1nnc(Cn2ncc3ncc(-c4ccc(F)c(C)c4F)cc32)s1` [Example 136, 2-[[6-(2,4-Difluoro-3-methyl-phenyl)pyrazolo[4,3-b]pyridin-1-yl]methyl]-5-methyl-1,3,4-thiadiazole] belongs 17 nM; to `Cc1cc(Cn2ncc3ncc(-c4ccc(F)c(C(F)F)c4)cc32)no1` [Example 53, 3-[[6-[3-(Difluoromethyl)-4-fluoro-phenyl]pyrazolo[4,3-b]pyridin-1-yl]methyl]-5-methyl-isoxazole], 18 nM; to `Fc1ccc(Cn2ncc3ncc(-c4ccc(Cl)c(Cl)c4)cc32)cn1` [Example 214, 6-(3,4-Dichlorophenyl)-1-[(6-fluoro-3-pyridyl)methyl]pyrazolo[4,3-b]pyridine], 1910 nM. With `Cc1ncc(Cn2ncc3ncc(-c4cccc(C(F)(F)F)c4)cc32)cn1` [Example 4, 1-[(2-Methylpyrimidin-5-yl)methyl]-6-[3-(trifluoromethyl)phenyl]pyrazolo[4,3-b]pyridine trifluoroacetate salt], the IC50 came to 4670 nM. As for `Fc1ccc(-c2cnc3cnn(Cc4cnccn4)c3c2)cc1C(F)F` [Example 272, 6-[3-(Difluoromethyl)-4-fluoro-phenyl]-1-(pyrazin-2-ylmethyl)pyrazolo[4,3-b]pyridine], the IC50 came to 37 nM. To `Cc1c(F)ccc(-c2cnc3cnn(Cc4cncc(F)c4)c3c2)c1F` [Example 249, 6-(2,4-Difluoro-3-methyl-phenyl)-1-[(5-fluoro-3-pyridyl)methyl]pyrazolo[4,3-b]pyridine trifluoroacetate salt] belongs 40 nM; to `CC(F)(F)c1cccc(-c2cnc3cnn(Cc4cncc(F)c4)c3c2)c1` [Example 161, 6-[3-(1,1-Difluoroethyl)phenyl]-1-[(5-fluoro-3-pyridyl)methyl]pyrazolo[4,3-b]pyridine], 40 nM. With `CC(F)(F)c1cc(-c2cnc3cnn(Cc4cncc(F)c4)c3c2)ccc1F` [Example 218, 6-[3-(1,1-Difluoroethyl)-4-fluoro-phenyl]-1-[(5-fluoro-3-pyridyl)methyl]pyrazolo[4,3-b]pyridine], the IC50 came out at 107 nM.

For the molecule `Cc1ccncc1Cn1ncc2ncc(-c3cc(F)cc(F)c3)cc21` [Example 184, 6-(3,5-Difluorophenyl)-1-[(4-methyl-3-pyridyl)methyl]pyrazolo[4,3-b]pyridine trifluoroacetate salt], the IC50 is 68 nM. To `Cc1nnc(Cn2nc(F)c3ncc(-c4ccc(F)c(C(F)F)c4)cc32)s1` [Example 123, 2-[[6-[3-(Difluoromethyl)-4-fluoro-phenyl]-3-fluoro-pyrazolo[4,3-b]pyridin-1-yl]methyl]-5-methyl-1,3,4-thiadiazole] belongs 42 nM. Turning to `N#Cc1ccc(Cn2ncc3ncc(-c4ccc(F)c(C(F)F)c4)cc32)s1` [Example 34, 5-((6-(3-(Difluoromethyl)-4-fluorophenyl)-1H-pyrazolo[4,3-b]pyridin-1-yl)methyl)thiophene-2-carbonitrile], the IC50 came out at 353 nM. For the molecule `Cc1ccncc1Cn1ncc2ncc(-c3ccc(F)c(C)c3F)cc21` [Example 247, 6-(2,4-Difluoro-3-methyl-phenyl)-1-[(4-methyl-3-pyridyl)methyl]pyrazolo[4,3-b]pyridine trifluoroacetate salt], the half-maximal inhibitory concentration (IC50) was determined as 128 nM. On to `Cc1ncc(Cn2ncc3ncc(-c4ccc(F)c(F)c4)cc32)cn1` [Example 285, 6-(3,4-Difluorophenyl)-1-[(2-methylpyrimidin-5-yl)methyl]pyrazolo[4,3-b]pyridine], for which the IC50 was greater than 10000 nM. In the case of `Cc1cnc(Cn2ncc3ncc(-c4ccc(F)c(OC(F)F)c4)cc32)o1` [Example 61, 2-[[6-[3-(Difluoromethoxy)-4-fluoro-phenyl]pyrazolo[4,3-b]pyridin-1-yl]methyl]-5-methyl-oxazole], the IC50 amounted to 160 nM.

As for `Cc1nc(Cn2ncc3ncc(-c4cccc(C(F)(F)F)c4)cc32)no1` [Example 86, 5-Methyl-3-[[6-[3-(trifluoromethyl)phenyl]pyrazolo[4,3-b]pyridin-1-yl]methyl]-1,2,4-oxadiazole], the IC50 is 202 nM. Regarding `Fc1ccc(-c2cnc3cnn(Cc4cncc(OC(F)F)c4)c3c2)cc1` [Example 151, 1-[[5-(Difluoromethoxy)-3-pyridyl]methyl]-6-(4-fluorophenyl)pyrazolo[4,3-b]pyridine], the IC50 worked out at 1150 nM. Take `COc1cc(Cn2ncc3ncc(-c4ccc(F)c(C(F)F)c4)cc32)ncn1` [Example 288, 6-[3-(Difluoromethyl)-4-fluoro-phenyl]-1-[(6-methoxypyrimidin-4-yl)methyl]pyrazolo[4,3-b]pyridine]: the IC50 was found to be 182 nM. In the case of `Cc1cc(-c2cnc3cnn(Cc4nnc(C(F)(F)F)o4)c3c2)ccc1F` [Example 91, 2-[[6-(4-Fluoro-3-methyl-phenyl)pyrazolo[4,3-b]pyridin-1-yl]methyl]-5-(trifluoromethyl)-1,3,4-oxadiazole], the IC50 worked out at 145 nM.
